Test results published in US9643967B2, “Pyrrolo[3,2-c]pyridine derivatives as TLR inhibitors” (TAKEDA PHARMACEUTICAL COMPANY LIMITED, priority 2013, dated 2017).

Biological target: T1, hTLR9 (Homo sapiens, UniProt Q9NR96)
T1 construct: expressed in transfected cells; host or cells: HEK-Blue-hTLR9 cells (HEK293)
T1 sequence (Q9NR96 26-1032): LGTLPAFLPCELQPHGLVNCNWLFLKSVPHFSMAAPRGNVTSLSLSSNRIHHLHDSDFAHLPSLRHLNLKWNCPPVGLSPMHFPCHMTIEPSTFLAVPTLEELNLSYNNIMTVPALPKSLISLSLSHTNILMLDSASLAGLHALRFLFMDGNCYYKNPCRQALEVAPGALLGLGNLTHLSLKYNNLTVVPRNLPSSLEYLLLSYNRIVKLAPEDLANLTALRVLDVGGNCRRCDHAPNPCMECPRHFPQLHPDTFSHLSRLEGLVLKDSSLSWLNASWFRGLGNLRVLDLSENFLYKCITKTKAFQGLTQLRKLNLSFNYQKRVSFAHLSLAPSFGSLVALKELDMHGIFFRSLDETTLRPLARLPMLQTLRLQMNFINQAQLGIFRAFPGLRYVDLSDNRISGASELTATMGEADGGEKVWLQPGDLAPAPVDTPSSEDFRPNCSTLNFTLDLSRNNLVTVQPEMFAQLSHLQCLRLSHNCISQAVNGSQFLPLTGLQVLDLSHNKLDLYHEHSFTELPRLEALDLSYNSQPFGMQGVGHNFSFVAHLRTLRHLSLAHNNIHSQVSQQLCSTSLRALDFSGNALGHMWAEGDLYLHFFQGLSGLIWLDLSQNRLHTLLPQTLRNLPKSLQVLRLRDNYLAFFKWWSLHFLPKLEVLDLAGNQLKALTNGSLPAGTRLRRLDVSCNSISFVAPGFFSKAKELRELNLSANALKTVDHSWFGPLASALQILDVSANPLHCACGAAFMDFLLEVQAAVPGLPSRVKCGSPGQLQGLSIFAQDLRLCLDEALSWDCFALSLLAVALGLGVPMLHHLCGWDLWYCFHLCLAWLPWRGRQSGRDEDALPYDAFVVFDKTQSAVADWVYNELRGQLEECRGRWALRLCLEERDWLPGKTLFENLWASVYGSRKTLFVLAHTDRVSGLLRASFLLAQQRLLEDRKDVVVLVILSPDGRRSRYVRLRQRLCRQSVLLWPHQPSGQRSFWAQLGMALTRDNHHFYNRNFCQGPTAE
Assay: hTLR9 antagonism (SEAP inhibition assay) in HEK-Blue-hTLR9 (HEK293) cells, ODN-2006 stimulated
Assay type: cell-based
Conditions: HEK-Blue hTLR9, 1 μM; SEAP, HEK-Blue-hTLR9 cells; read-out: hTLR9 inhibitory activity (% at 1 μM)
Method: hTLR9 Antagonism (SEAP Inhibition Assay) in HEK293 Cell Lines
The SEAP reporter gene in HEK-Blue™-hTLR9 cells is placed under the control of the IFN-b minimal promoter fused to five NF-kB and AP-1 binding sites. The stimulation with a TLR9 ligand (ODN-2006) activates NF-kB and AP-1 which induces the production of SEAP. Levels of SEAP are determined with QUANTI-Blue™ detection medium that turns purple/blue in the presence of alkaline phosphatase. Decrease in the levels of SEAP production as indicated by reduction in absorbance at 650 nm is directly co-related with the TLR9 inhibitory activity of the antagonist (NCE).
HEK-Blue™-hTLR9 cells were maintained in DMEM with 10% FBS, 1% Penicillin/Streptomycin/Amphotericin (complete growth medium) and 0.2% Normocin. For the assay, cells were dissociated by washing in 1×PBS and re-suspended in complete DMEM. Cells were seeded at a density of 20000 cells per well; (40 μl per well) in a 384 well assay plate.
5 μl of 10× antagonist (NCE) was added to the cells in triplicates for each concentration. The plate was incubated for half an hour at 37° C. with 5% CO2. 5 μl of agonist (ODN-2006) was added and the plate was incubated overnight for 18 hours at 37° C. with 5% CO2. 5 μl of supernatant was transferred to a 384 well reading plate and to this 45 μl of Quanti-Blue™ detection reagent was added. The plate was then incubated for an hour at 37° C. SEAP activity in the supernatant was indicated by change in the pink color of Quanti-Blue™ detection reagent to purple/blue and the absorbance was read at 650 nm in the end point mode.

Structure (SMILES)	inhibition at 1 µM
CC(C)N1CCN(c2ccc(-c3nccc4[nH]c(CN5CCOCC5)cc34)cc2)CC1 [Example A1, 4-[[4-[4-(4-isopropylpiperazin-1-yl)phenyl]-1H-pyrrolo[3,2-c]pyridin-2-yl]methyl]morpholine]	100%
CN1CCN(c2ccc(-c3nccc4[nH]c(CN5CCOCC5)cc34)cc2)CC1 [Example A2, 4-[[4-[4-(4-methylpiperazin-1-yl)phenyl]-1H-pyrrolo[3,2-c]pyridin-2-yl]methyl] morpholine]	100%
CCN1CCN(c2ccc(-c3nccc4[nH]c(CN5CCOCC5)cc34)cc2)CC1 [Example A3, 4-[[4-[4-(4-ethylpiperazin-1-yl)phenyl]-1H-pyrrolo[3,2-c]pyridin-2-yl]methyl] morpholine]	100%
Cc1cc2[nH]c(CN3CCOCC3)cc2c(-c2ccc(N3CCN(C(C)C)CC3)cc2)n1 [Example A4, 4-[[4-[4-[4-isopropylpiperazin-1-yl)phenyl]-6-methyl-1H-pyrrolo[3,2-c]pyridin-2-yl]methyl] morpholine]	100%
CCN1CCN(c2ccc(-c3nc(C)cc4[nH]c(CN5CCOCC5)cc34)cc2)CC1 [Example A5, 4-[[4-[4-(4-ethylpiperazin-1-yl)phenyl]-6-methyl-1H-pyrrolo[3,2-c]pyridin-2-yl]methyl] morpholine]	100%
CC(C)N1CCN(c2ccc(-c3nccc4c3cc(CN3CCOCC3)n4C)cc2)CC1 [Example A8, 4-[[4-[4-(4-isopropylpiperazin-1-yl)phenyl]-1-methyl-pyrrolo[3,2-c]pyridin-2-yl]methyl] morpholine]	100%
CN1CCN(c2ccc(-c3nccc4c3cc(CN3CCOCC3)n4C)cc2)CC1 [Example A9, 4-[[1-methyl-4-[4-(4-methylpiperazin-1-yl)phenyl]pyrrolo[3,2-c]pyridin-2-yl]methyl] morpholine]	100%
CC(C)N1CCN(c2ccc(-c3nccc4[nH]c(CN5CCC(O)CC5)cc34)cc2)CC1 [Example A12, 1-[[4-[4-(4-isopropylpiperazin-1-yl)phenyl]-1H-pyrrolo[3,2-c]pyridin-2-yl]methyl] piperidin-4-ol]	100%
CC(C)N1CCN(c2ccc(-c3nccc4[nH]c(CN5CCC6(CC5)CC(O)C6)cc34)cc2)CC1 [Example A13, 7-[[4-[4-(4-isopropylpiperazin-1-yl)phenyl]-1H-pyrrolo[3,2-c]pyridin-2-yl]methyl]-7-azaspiro[3.5] nonan-2-ol]	100%
CC(C)N1CCN(c2ccc(-c3nccc4[nH]c(CN5CC(F)C5)cc34)cc2)CC1 [Example A16, 2-[(3-fluoroazetidin-1-yl)methyl]-4-[4-(4-isopropylpiperazin-1-yl)phenyl]-1H-pyrrolo[3,2-c]pyridine]	100%
CC(C)N1CCN(c2ccc(-c3nccc4[nH]c(CN5CCCCC5)cc34)cc2)CC1 [Example A17, 4-[4-(4-isopropylpiperazin-1-yl)phenyl]-2-(1-piperidylmethyl)-1H-pyrrolo[3,2-c]pyridine]	100%

Continued, values first:

inhibition at 1 µM	Structure (SMILES)
95.1%	CC(C)N1CCN(c2ccc(-c3nccc4[nH]c(CN5CCC(F)CC5)cc34)cc2)CC1 [Example A24, 2-[(4-fluoro-1-piperidyl)methyl]-4-[4-(4-isopropylpiperazin-yl)phenyl]-1H-pyrrolo[3,2-c] pyridine]
95.2%	CN1CCN(c2ccc(-c3nccc4[nH]c(CN5CCC(F)CC5)cc34)cc2)CC1 [Example A25, 2-[(4-fluoro-1-piperidyl)methyl]-4-[4-(4-methylpiperazin-1-yl)phenyl] - 1H-pyrrolo[3,2-c]pyridine]
91%	Cc1cc2[nH]c(Cn3cccn3)cc2c(-c2ccc(N3CCN(C(C)C)CC3)cc2)n1 [Example A28, 4-[4-(4-isopropylpiperazin-1-yl)phenyl]-6-methyl-2-(pyrazol-1-ylmethyl)-1H-pyrrolo[3,2-c]pyridine]
100%	Cc1cc2[nH]c(CN3CCC4(CC3)CC(O)C4)cc2c(-c2ccc(N3CCN(C(C)C)CC3)cc2)n1 [Example A29, 7-[[4-[4-(4-isopropylpiperazin-1-yl)phenyl]-6-methyl-1H-pyrrolo[3,2-c]pyridin-2-yl]methyl]-7-azaspiro[3.5] nonan-2-ol]
96.7%	Cc1cc2[nH]c(CN3CCC4(CC3)CC(C)C4)cc2c(-c2ccc(N3CCN(C(C)C)CC3)cc2)n1 [Example A30, 4-[4-(4-isopropylpiperazin-1-yl)phenyl]-6-methyl-2-[(2-methyl-7-azaspiro[3.5]nonan-7-yl)methyl]-1H-pyrrolo[3,2-c]pyridine]
90.4%	CC(C)N1CCN(c2ccc(-c3nc(C4CC4)cc4[nH]c(CN5CCOCC5)cc34)cc2)CC1 [Example A33, 4-[[6-cyclopropyl-4-[4-(4-isopropylpiperazin-1-yl)phenyl]-1H-pyrrolo[3,2-c]pyridin-2-yl]methyl] morpholine]
82%	CN1CCN(c2ccc(-c3nc(C4CC4)cc4[nH]c(CN5CCOCC5)cc34)cc2)CC1 [Example A34, 4-[[6-cyclopropyl-4-[4-(4-methylpiperazin-1-yl)phenyl]-1H-pyrrolo[3,2-c]pyridin-2-yl]methyl] morpholine]
96.3%	Cc1cc2c(cc(CN3CCOCC3)n2C)c(-c2ccc(N3CCN(C(C)C)CC3)cc2)n1 [Example A35, 4-[[4-[4-(4-isopropylpiperazin-1-yl]phenyl]-1,6-dimethyl-pyrrolo[3,2-c]pyridin-2-yl]methyl] morpholine]
96.7%	Cc1nc(-c2ccc(N3CCN(C(C)C)CC3)cc2)c2cc(CN3CCOCC3)[nH]c2c1C [Example A36, 4-[[4-[4-(4-isopropylpiperazin-1-yl)phenyl]-6,7-dimethyl-1H-pyrrolo[3,2-c]pyridin-2-yl]methyl] morpholine]
100%	Cc1nc(-c2ccc(N3CCN(C)CC3)cc2)c2cc(CN3CCOCC3)[nH]c2c1C [Example A37, 4-[[6,7-dimethyl-4-[4-(4-methylpiperazin-1-yl)phenyl]-1H-pyrrolo[3,2-c]pyridin-2-yl]methyl] morpholine]
98.5%	CCN1CCN(c2ccc(-c3nc(C)c(C)c4[nH]c(CN5CCOCC5)cc34)cc2)CC1 [Example A38, 4-[[4-[4-(4-ethylpiperazin-1-yl)phenyl]-6,7-dimethyl-1H-pyrrolo[3,2-c]pyridin-2-yl]methyl] morpholine]
74.3%	Cc1nc(-c2ccc(N3CCN(C(C)C)CC3)cc2)c2cc(CN3CCCCC3)[nH]c2c1C [Example A39, 4-[4-(4-isopropylpiperazin-1-yl)phenyl]-6,7-dimethyl-2-(1-piperidylmethyl)-1H-pyrrolo[3,2-c]pyridine]
80%	Cc1nc(-c2ccc(N3CCN(C(C)C)CC3)cc2)c2cc(CN3CCCC3)[nH]c2c1C [Example A40, 4-[4-(4-isopropylpiperazin-1-yl)phenyl]-6,7-dimethyl 2-(pyrrolidin-1-ylmethyl)-1H-pyrrolo[3,2-c)pyridine]
96%	c1cc2[nH]c(CN3CCOCC3)cc2c(-c2ccc(N3CCNCC3)cc2)n1 [Example A42, 4-[[4-(4-(piperazin-1-yl)phenyl)-1H-pyrrolo[3,2-c]pyridin-2-yl]methyl] morpholine]
91%	c1cc2[nH]c(CN3CCOCC3)cc2c(-c2ccc(OC3CCNCC3)cc2)n1 [Example A49, 4-[[4-[4-(4-piperidyloxy)phenyl]-1H-pyrrolo[3,2-c]pyridin-2-yl]methyl]morpholine]
